Source: PubChem BioAssay (NCI)
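Dose response: 5 concentrations. Exposure: 48 h. Format: 96-well plates. Endpoint: linear interpolation; highest concentration if not reached. TGI: concentration producing complete growth inhibition.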

Tests used:
Assay in all cases: NCI tumour cell line growth inhibition, 48 h
SK-MEL-2 melanoma = test system: SK-MEL-2 melanoma
K-562 leukemia = test system: K-562 leukemia
SK-MEL-5 melanoma = test system: SK-MEL-5 melanoma
ACHN renal = test system: ACHN renal
SF-268 CNS = test system: SF-268 CNS
SN12C renal = test system: SN12C renal
HOP-92 NSCLC = test system: HOP-92 NSCLC
HT29 colon = test system: HT29 colon
HOP-18 NSCLC = test system: HOP-18 NSCLC
IGROV1 ovarian = test system: IGROV1 ovarian
NCI-H23 lung = test system: NCI-H23 lung
SNB-75 CNS = test system: SNB-75 CNS
NCI-H226 lung = test system: NCI-H226 lung
NCI-H522 lung = test system: NCI-H522 lung
M14 melanoma = test system: M14 melanoma
SW-620 colon = test system: SW-620 colon
KM20L2 colon = test system: KM20L2 colon
SF-539 CNS = test system: SF-539 CNS
MOLT-4 leukemia = test system: MOLT-4 leukemia
CAKI-1 renal = test system: CAKI-1 renal
M19-MEL melanoma = test system: M19-MEL melanoma
HCT-15 colon = test system: HCT-15 colon
HOP-62 NSCLC = test system: HOP-62 NSCLC
UACC-62 melanoma = test system: UACC-62 melanoma
TK-10 renal = test system: TK-10 renal
SK-OV-3 ovarian = test system: SK-OV-3 ovarian
UACC-257 melanoma = test system: UACC-257 melanoma
DMS 114 small cell lung = test system: DMS 114 small cell lung
LXFL 529 NSCLC = test system: LXFL 529 NSCLC
LOX IMVI melanoma = test system: LOX IMVI melanoma
UO-31 renal = test system: UO-31 renal
OVCAR-3 ovarian = test system: OVCAR-3 ovarian
OVCAR-8 ovarian = test system: OVCAR-8 ovarian
SF-295 CNS = test system: SF-295 CNS
NCI-H460 lung = test system: NCI-H460 lung
DLD-1 colon = test system: DLD-1 colon
SNB-19 CNS = test system: SNB-19 CNS
MALME-3M melanoma = test system: MALME-3M melanoma
SK-MEL-28 melanoma = test system: SK-MEL-28 melanoma
OVCAR-5 ovarian = test system: OVCAR-5 ovarian
RPMI-8226 leukemia = test system: RPMI-8226 leukemia
XF 498 CNS = test system: XF 498 CNS
DMS 273 small cell lung = test system: DMS 273 small cell lung
RXF 393 renal = test system: RXF 393 renal
CCRF-CEM leukemia = test system: CCRF-CEM leukemia
SNB-78 CNS = test system: SNB-78 CNS
786-0 renal = test system: 786-0 renal
A549 NSCLC = test system: A549 NSCLC
COLO 205 colon = test system: COLO 205 colon
HL-60(TB) leukemia = test system: HL-60(TB) leukemia
OVCAR-4 ovarian = test system: OVCAR-4 ovarian
KM12 colon = test system: KM12 colon
HCT-116 colon = test system: HCT-116 colon
U251 CNS = test system: U251 CNS
SR leukemia = test system: SR leukemia
A498 renal = test system: A498 renal
EKVX NSCLC = test system: EKVX NSCLC
HCC-2998 colon = test system: HCC-2998 colon

Measured: TGI

CN(C(=O)c1cccs1)C(=S)N1CCN(c2ccccn2)CC1
not listed: SR leukemia | A498 renal | EKVX NSCLC | HCC-2998 colon
> 100 µM: all other assays above

Cn1cnc([N+](=O)[O-])c1Sc1nc2ncccc2[nH]1
85.6 µM: CAKI-1 renal
64.2 µM: CCRF-CEM leukemia
56.5 µM: COLO 205 colon
74.4 µM: DMS 114 small cell lung
62.6 µM: HL-60(TB) leukemia
not listed: SK-MEL-2 melanoma | NCI-H522 lung | M19-MEL melanoma | DMS 273 small cell lung
> 100 µM: all other assays above

Cc1nc(C(N)=S)sc1C(=O)CC(=O)C(=O)Nc1c(C(C)C)cccc1C(C)C
71.7 µM: SNB-75 CNS
85.4 µM: SF-295 CNS
88.9 µM: NCI-H23 lung
86.3 µM: SF-539 CNS
42 µM: OVCAR-3 ovarian
48.8 µM: XF 498 CNS
92.9 µM: HOP-92 NSCLC
64.6 µM: DMS 114 small cell lung
46.9 µM: NCI-H522 lung
not listed: DMS 273 small cell lung
> 100 µM: all other assays above
